Results: ChEMBL document CHEMBL1268880, “Investigation of 4-piperidinols as novel H3 antagonists” (Bioorg Med Chem Lett, 2010)

Assays:
[1] = Selectivity ratio of IC50 for mouse histamine H3 receptor to IC50 for human histamine H3 receptor
[2] = target: Histamine H3 receptor (Homo sapiens, UniProt Q9Y5N1); experiment: Antagonist activity against human histamine H3 receptor expressed in human HT1080 cells assessed as inhibition of (R)-alpha-methylhistamine-induced increase in intracellular calcium level by FLIPR assay; type: functional, cell-based, HT-1080
[3] = target: Histamine H3 receptor (Mus musculus, UniProt P58406); experiment: Antagonist activity against mouse histamine H3 receptor expressed in human HT1080 cells assessed as inhibition of (R)-alpha-methylhistamine-induced increase in intracellular calcium level by FLIPR assay; type: functional, cell-based, HT-1080
[4] = target: T1, hERG (KCNH2) (Homo sapiens, UniProt Q12809); experiment: Inhibition of human ERG at 50 uM
[5] = target: T1, hERG (KCNH2); experiment: Inhibition of human ERG at 10 uM

T1 sequence (Q12809 whole entry): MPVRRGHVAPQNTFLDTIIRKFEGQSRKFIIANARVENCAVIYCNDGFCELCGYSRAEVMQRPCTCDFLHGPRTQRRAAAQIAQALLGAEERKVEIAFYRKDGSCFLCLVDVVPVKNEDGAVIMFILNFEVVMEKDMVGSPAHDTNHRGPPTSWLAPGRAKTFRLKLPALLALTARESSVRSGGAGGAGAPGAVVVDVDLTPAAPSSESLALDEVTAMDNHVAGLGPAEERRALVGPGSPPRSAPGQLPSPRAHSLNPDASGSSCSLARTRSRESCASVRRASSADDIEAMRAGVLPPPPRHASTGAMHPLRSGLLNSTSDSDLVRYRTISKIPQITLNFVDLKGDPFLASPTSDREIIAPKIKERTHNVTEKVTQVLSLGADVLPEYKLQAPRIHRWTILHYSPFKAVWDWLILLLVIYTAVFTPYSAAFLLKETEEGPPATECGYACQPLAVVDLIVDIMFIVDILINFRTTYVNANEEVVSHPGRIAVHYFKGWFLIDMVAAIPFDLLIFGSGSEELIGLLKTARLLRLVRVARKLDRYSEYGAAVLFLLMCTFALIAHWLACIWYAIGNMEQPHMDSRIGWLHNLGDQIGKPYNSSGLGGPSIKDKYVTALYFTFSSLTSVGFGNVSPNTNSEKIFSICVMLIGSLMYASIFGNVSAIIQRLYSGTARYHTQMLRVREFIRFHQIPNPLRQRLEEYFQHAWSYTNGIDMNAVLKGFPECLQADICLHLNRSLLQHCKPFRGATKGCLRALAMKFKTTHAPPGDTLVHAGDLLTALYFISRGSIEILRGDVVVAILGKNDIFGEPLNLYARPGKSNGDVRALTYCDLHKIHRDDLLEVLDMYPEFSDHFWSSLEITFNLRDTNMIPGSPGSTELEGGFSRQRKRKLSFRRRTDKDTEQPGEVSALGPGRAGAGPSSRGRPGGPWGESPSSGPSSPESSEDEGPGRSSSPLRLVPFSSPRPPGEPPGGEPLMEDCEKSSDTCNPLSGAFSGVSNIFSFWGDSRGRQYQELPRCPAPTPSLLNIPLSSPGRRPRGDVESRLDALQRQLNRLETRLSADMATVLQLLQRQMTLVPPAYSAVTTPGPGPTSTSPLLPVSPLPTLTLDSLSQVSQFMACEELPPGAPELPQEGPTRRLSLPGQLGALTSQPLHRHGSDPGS
Chain of Histamine H3 receptor (Mus musculus, UniProt P58406) (P58406 whole entry): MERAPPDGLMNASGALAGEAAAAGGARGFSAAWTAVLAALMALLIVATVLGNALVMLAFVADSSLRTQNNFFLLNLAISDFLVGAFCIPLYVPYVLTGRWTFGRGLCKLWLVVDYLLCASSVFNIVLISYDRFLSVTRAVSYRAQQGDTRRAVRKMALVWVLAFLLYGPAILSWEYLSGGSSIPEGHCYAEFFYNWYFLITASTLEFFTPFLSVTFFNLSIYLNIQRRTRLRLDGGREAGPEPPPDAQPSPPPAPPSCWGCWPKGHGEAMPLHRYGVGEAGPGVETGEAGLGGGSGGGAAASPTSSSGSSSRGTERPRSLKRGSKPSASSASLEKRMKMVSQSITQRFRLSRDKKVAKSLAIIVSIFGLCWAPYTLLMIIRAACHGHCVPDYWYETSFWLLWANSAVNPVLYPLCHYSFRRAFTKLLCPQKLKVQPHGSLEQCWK
Chain of Histamine H3 receptor (Homo sapiens, UniProt Q9Y5N1) (Q9Y5N1 whole entry): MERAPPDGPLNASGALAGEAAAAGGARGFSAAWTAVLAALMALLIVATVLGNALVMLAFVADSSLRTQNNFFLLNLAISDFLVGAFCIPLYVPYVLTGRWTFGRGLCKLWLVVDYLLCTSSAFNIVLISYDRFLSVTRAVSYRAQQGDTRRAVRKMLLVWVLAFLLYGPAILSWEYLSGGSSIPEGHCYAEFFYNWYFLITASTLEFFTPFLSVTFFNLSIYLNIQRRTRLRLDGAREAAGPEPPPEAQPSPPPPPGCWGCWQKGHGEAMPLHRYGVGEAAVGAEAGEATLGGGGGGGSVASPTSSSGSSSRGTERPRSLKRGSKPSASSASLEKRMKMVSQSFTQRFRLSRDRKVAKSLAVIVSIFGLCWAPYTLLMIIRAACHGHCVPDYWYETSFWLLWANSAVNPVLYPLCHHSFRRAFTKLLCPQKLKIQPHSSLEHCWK

Structure (SMILES)	Ratio IC50 [1]	IC50 [2] [nM]	IC50 [3] [nM]	inhibition at 50 µM [4] [%]	inhibition at 10 µM [5] [%]
C[C@@H]1C[C@@](O)(C#Cc2cccc3ccccc23)[C@@H](C)CN1C	13	9	119	15	–
C[C@@H]1C[C@@](O)(CCc2cccc3ccccc23)[C@@H](C)CN1C	–	2	85	–	16
CC1CC(O)(C#Cc2cccc3ccccc23)C(C)CN1C (racemic)	–	11	280	–	–
CC(=O)OC1(C#Cc2cccc3ccccc23)CC(C)N(C)CC1C (racemic)	–	5510	> 10000	–	–
CC1CN2CCCC2CC1(O)C#Cc1cccc2ccccc12 (racemic)	–	5	280	–	23
CC1CN2CCCC2CC1(O)CCc1cccc2ccccc12 (racemic)	–	14	345	–	–
CC1CC(O)(/C=C/c2cccc3ccccc23)C(C)CN1C (racemic)	–	20	570	–	20
CC1CC(O)(CCc2cccc3ccccc23)C(C)CN1C (racemic)	–	17	480	–	15
C[C@@H]1CN(C)[C@@H](C)C[C@]1(O)C#Cc1cccc2ccccc12	–	41	1320	–	–
CC1CC(O)(C#Cc2ccc3ccccc3c2)C(C)CN1C (racemic)	–	84	810	–	–
CC1CC(O)(C#Cc2cccc3ncccc23)C(C)CN1C (racemic)	–	12	690	–	3
CC1CC(O)(CCc2ccc3ccccc3c2)C(C)CN1C (racemic)	–	2	122	–	0
NC(=NCc1ccc(Cl)cc1)SCCCc1cnc[nH]1 [CLOBENPROPIT]	–	–	1	–	–
CC1CC(O)(C#Cc2cccc3cccnc23)C(C)CN1C (racemic)	–	709	9730	–	–
